Results as given in ChEMBL document CHEMBL1129422, “Syntheses and structure-activity relationships of the second-generation antitumor taxoids: exceptional activity against drug-resistant cancer cells” (J Med Chem, 1996).

Legend:
HT-29 = test: Concentration required to inhibit growth of human tumor HT-29 (colon) cell line.; assay type: functional, cell-based
Mus musculus [1] = test: Log cell kill = T-C(days)/3.32xTd (Tumor doubling time in days, 1.4 in this assay ) on day 5 at 12.4 mg/kg/day in B16 melanoma implanted sc in B6D2F1 mice; assay type: ADME, organism-based; parameters: route subcutaneous; conditions: in vivo
A121 = test: Concentration required to inhibit growth of human tumor A121 (ovarian) cell line.; assay type: functional, cell-based
MCF7 [2] = test: Concentration required to inhibit growth of human tumor […] (breast) cell line.; assay type: functional, cell-based
MCF7 [3] = test: Concentration required to inhibit growth of human tumor MCF-7 (breast) cell line.; assay type: functional, cell-based
Mus musculus [4] = test: Tumor growth delay of B16 melanoma implanted sc in B6D2F1 mice when 0.4 mL/mouse administered i.v. on day 5 at 12.4 mg/kg/day; assay type: functional; conditions: route intravenous
Mus musculus [5] = test: Tumor growth inhibition of B16 melanoma implanted sc in B6D2F1 mice when 0.4 mL/mouse administered i.v. on day 5 at 12.4 mg/kg/day; assay type: functional; conditions: route intravenous
Mus musculus [6] = test: Tumor growth inhibition of B16 melanoma implanted sc in B6D2F1 mice when 0.4 mL/mouse administered i.v. on day 7 at 7.7 mg/kg/day; assay type: functional; conditions: route intravenous
Mus musculus [7] = test: Tumor growth delay of B16 melanoma implanted sc in B6D2F1 mice when 0.4 mL/mouse administered i.v. on day 7 at 7.7 mg/kg/day; assay type: functional; conditions: route intravenous
Mus musculus [8] = test: Log cell kill = T-C(days)/3.32xTd (Tumor doubling time in days, 1.4 in this assay )on day 7 at 7.7 mg/kg/day in B16 melanoma implanted sc in B6D2F1 mice; assay type: ADME, organism-based; parameters: route subcutaneous; conditions: in vivo
Mus musculus [9] = test: Tumor growth inhibition of B16 melanoma implanted sc in B6D2F1 mice when 0.4 mL/mouse administered i.v. on day 9 at 4.8 mg/kg/day; assay type: functional; conditions: route intravenous
A549 = test: Concentration required to inhibit growth of human tumor A549 (NSCL) cell line.; assay type: functional, cell-based
Mus musculus [10] = test: Log cell kill = T-C(days)/3.32xTd (Tumor doubling time in days, 1.4 in this assay )on day 9 at 4.8 mg/kg/day in B16 melanoma implanted sc in B6D2F1 mice; assay type: ADME, organism-based; parameters: route subcutaneous; conditions: in vivo
Mus musculus [11] = test: Tumor growth delay of B16 melanoma implanted sc in B6D2F1 mice when 0.4 mL/mouse administered i.v. on day 9 at 4.8 mg/kg/day; assay type: functional; conditions: route intravenous
A2780 [12] = test: Cytotoxicity against A2780-CP3, cisplatin-resistant Ovarian carcinoma cell line; assay type: functional, cell-based, Homo sapiens
A2780 [13] = test: Cytotoxicity against A2780-WT, human ovarian carcinoma cell line; assay type: functional, cell-based
A2780 [14] = test: Cytotoxicity against A2780-DX5, Doxorubicin-resistant Ovarian carcinoma cell line; assay type: functional, cell-based, Homo sapiens
A2780 [15] = test: Cytotoxicity against A2780-C25, oxaliplatin-resistant Ovarian carcinoma cell line; assay type: functional, cell-based, Homo sapiens
Mus musculus [16] = test: Log cell kill = T-C(days)/3.32xTd (Tumor doubling time in days, 1.4 in this assay )on day 7 at 12.4 mg/kg/day in B16 melanoma implanted sc in B6D2F1 mice; assay type: ADME, organism-based; parameters: route subcutaneous; conditions: in vivo
Mus musculus [17] = test: Tumor growth inhibition of B16 melanoma implanted sc in B6D2F1 mice when 0.4 mL/mouse administered i.v. on day 9 at 7.7 mg/kg/day; assay type: functional; conditions: route intravenous
Mus musculus [18] = test: Log cell kill = T-C(days)/3.32xTd (Tumor doubling time in days, 1.4 in this assay )on day 9 at 7.7 mg/kg/day in B16 melanoma implanted sc in B6D2F1 mice; assay type: ADME, organism-based; parameters: route subcutaneous; conditions: in vivo
Mus musculus [19] = test: Tumor growth delay of B16 melanoma implanted sc in B6D2F1 mice when 0.4 mL/mouse administered i.v. on day 9 at 7.7 mg/kg/day; assay type: functional; conditions: route intravenous
Mus musculus [20] = test: Tumor growth inhibition of B16 melanoma implanted sc in B6D2F1 mice when 0.4 mL/mouse administered i.v. on day 5 at 20 mg/kg/day; assay type: functional; conditions: route intravenous
Mus musculus [21] = test: Tumor growth inhibition of B16 melanoma implanted sc in B6D2F1 mice when 0.4 mL/mouse administered i.v. on day 7 at 12.4 mg/kg/day; assay type: functional; conditions: route intravenous
Mus musculus [22] = test: Tumor growth delay of B16 melanoma implanted sc in B6D2F1 mice when 0.4 mL/mouse administered i.v. on day 7 at 12.4 mg/kg/day; assay type: functional; conditions: route intravenous
Mus musculus [23] = test: Log cell kill = T-C(days)/3.32xTd (Tumor doubling time in days, 1.4 in this assay ) on day 5 at 20 mg/kg/day in B16 melanoma implanted sc in B6D2F1 mice; assay type: ADME, organism-based; parameters: route subcutaneous; conditions: in vivo

Molecule | IC50 (HT-29) [nM] | IC50 (A121) [nM] | IC50 (MCF7 [2]) [nM] | IC50 (MCF7 [3]) [nM] | IC50 (A549) [nM] | further results
CCC(=O)O[C@H]1C(=O)[C@@]2(C)[C@H]([C@H](OC(=O)c3ccccc3)[C@]3(O)C[C@H](OC(=O)[C@H](O)[C@H](C=C(C)C)NC(=O)OC(C)(C)C)C(C)=C1C3(C)C)[C@]1(OC(C)=O)CO[C@@H]1C[C@@H]2O | 0.31 | 0.12 | 2.2 | 0.18 | 0.29 | Log 10 cell kill (Mus musculus [1]): 2.3; T-C (Mus musculus [4]): 10.9 days; T/C (Mus musculus [5]): 0%; T/C (Mus musculus [6]): 0%; T-C (Mus musculus [7]): 9.3 days; Log 10 cell kill (Mus musculus [8]): 2; T/C (Mus musculus [9]): 34%; Log 10 cell kill (Mus musculus [10]): 0.6; T-C (Mus musculus [11]): 3 days
CC(=O)O[C@@]12CO[C@@H]1C[C@H](O)[C@@]1(C)C(=O)[C@H](OC(=O)C3CC3)C3=C(C)[C@@H](OC(=O)[C@H](O)[C@H](C=C(C)C)NC(=O)OC(C)(C)C)C[C@@](O)([C@@H](OC(=O)c4ccccc4)[C@H]21)C3(C)C | 0.36 | 0.26 | 2.1 | 0.2 | 0.57 | 
CO[C@H]1C(=O)[C@@]2(C)[C@H]([C@H](OC(=O)c3ccccc3)[C@]3(O)C[C@H](OC(=O)[C@H](O)[C@H](CC(C)C)NC(=O)OC(C)(C)C)C(C)=C1C3(C)C)[C@]1(OC(C)=O)CO[C@@H]1C[C@@H]2O | 0.6 | 0.7 | 214 | 0.33 | 0.6 | 
CC(=O)O[C@@]12CO[C@@H]1C[C@H](O)[C@@]1(C)C(=O)[C@H](OC(=O)N(C)C)C3=C(C)[C@@H](OC(=O)[C@H](O)[C@H](C=C(C)C)NC(=O)OC(C)(C)C)C[C@@](O)([C@@H](OC(=O)c4ccccc4)[C@H]21)C3(C)C | 0.5 | 0.3 | 4.9 | 0.13 | 0.6 | 
CCNC(=O)O[C@H]1C(=O)[C@@]2(C)[C@H]([C@H](OC(=O)c3ccccc3)[C@]3(O)C[C@H](OC(=O)[C@H](O)[C@H](C=C(C)C)NC(=O)OC(C)(C)C)C(C)=C1C3(C)C)[C@]1(OC(C)=O)CO[C@@H]1C[C@@H]2O | 0.41 | 0.29 | 162 | 0.31 | 0.15 | 
CC(=O)O[C@@]12CO[C@@H]1C[C@H](O)[C@@]1(C)C(=O)[C@H](OC(=O)NC(C)C)C3=C(C)[C@@H](OC(=O)[C@H](O)[C@H](C=C(C)C)NC(=O)OC(C)(C)C)C[C@@](O)([C@@H](OC(=O)c4ccccc4)[C@H]21)C3(C)C | 0.52 | 0.34 | 65 | 0.46 | 0.36 | 
CC(=O)O[C@H]1C(=O)[C@@]2(C)[C@H]([C@H](OC(=O)c3ccccc3)[C@]3(O)C[C@H](OC(=O)[C@H](O)[C@H](C=C(C)C)NC(=O)OC(C)(C)C)C(C)=C1C3(C)C)[C@]1(OC(C)=O)CO[C@@H]1C[C@@H]2O | 0.63 | 0.46 | 12 | 0.55 | 0.27 | IC50 (A2780 [12]; Homo sapiens, A2780): 0.36 nM; IC50 (A2780 [13]; Homo sapiens, A2780): 0.4 nM; IC50 (A2780 [14]; Homo sapiens, A2780): 5.7 nM; IC50 (A2780 [15]; Homo sapiens, A2780): 0.3 nM
CCCCC(=O)O[C@H]1C(=O)[C@@]2(C)[C@H]([C@H](OC(=O)c3ccccc3)[C@]3(O)C[C@H](OC(=O)[C@H](O)[C@H](C=C(C)C)NC(=O)OC(C)(C)C)C(C)=C1C3(C)C)[C@]1(OC(C)=O)CO[C@@H]1C[C@@H]2O | 0.6 | 0.6 | 30 | 0.5 | 0.6 | 
CCCNC(=O)O[C@H]1C(=O)[C@@]2(C)[C@H]([C@H](OC(=O)c3ccccc3)[C@]3(O)C[C@H](OC(=O)[C@H](O)[C@H](C=C(C)C)NC(=O)OC(C)(C)C)C(C)=C1C3(C)C)[C@]1(OC(C)=O)CO[C@@H]1C[C@@H]2O | 0.55 | 0.34 | 87 | 0.36 | 0.22 | 
C=CCNC(=O)O[C@H]1C(=O)[C@@]2(C)[C@H]([C@H](OC(=O)c3ccccc3)[C@]3(O)C[C@H](OC(=O)[C@H](O)[C@H](C=C(C)C)NC(=O)OC(C)(C)C)C(C)=C1C3(C)C)[C@]1(OC(C)=O)CO[C@@H]1C[C@@H]2O | 0.53 | 0.44 | 76 | 0.44 | 0.35 | 
CCC(=O)O[C@H]1C(=O)[C@@]2(C)[C@H]([C@H](OC(=O)c3ccccc3)[C@]3(O)C[C@H](OC(=O)[C@H](O)[C@H](CC(C)C)NC(=O)OC(C)(C)C)C(C)=C1C3(C)C)[C@]1(OC(C)=O)CO[C@@H]1C[C@@H]2O | 0.53 | 0.41 | 2.8 | 0.35 | 0.53 | 
CC(=O)O[C@@]12CO[C@@H]1C[C@H](O)[C@@]1(C)C(=O)[C@H](OC(=O)N3CCOCC3)C3=C(C)[C@@H](OC(=O)[C@H](O)[C@H](C=C(C)C)NC(=O)OC(C)(C)C)C[C@@](O)([C@@H](OC(=O)c4ccccc4)[C@H]21)C3(C)C | 0.18 | 0.09 | 12.5 | 0.09 | 0.22 | 
CC(=O)O[C@@]12CO[C@@H]1C[C@H](O)[C@@]1(C)C(=O)[C@H](O)C3=C(C)[C@@H](OC(=O)[C@H](O)[C@@H](NC(=O)OC(C)(C)C)c4ccccc4)C[C@@](O)([C@@H](OC(=O)c4ccccc4)[C@H]21)C3(C)C.O.O.O [DOCETAXEL] |  |  |  |  |  | Log 10 cell kill (Mus musculus [16]): 1.5; T/C (Mus musculus [17]): 8%; Log 10 cell kill (Mus musculus [18]): 0.9; IC50 (A2780 [12]; Homo sapiens, A2780): 1.4 nM; IC50 (A2780 [13]; Homo sapiens, A2780): 1.2 nM; IC50 (A2780 [14]; Homo sapiens, A2780): 122 nM; T-C (Mus musculus [19]): 4.3 days; T/C (Mus musculus [20]): 0%; T/C (Mus musculus [21]): 7%; T-C (Mus musculus [22]): 7.1 days; Log 10 cell kill (Mus musculus [23]): 3.3; IC50 (A2780 [15]; Homo sapiens, A2780): 1 nM
COc1cccc2c1C(=O)c1c(O)c3c(c(O)c1C2=O)C[C@@](O)(C(=O)CO)C[C@@H]3O[C@H]1C[C@H](N)[C@H](O)[C@H](C)O1 [DOXORUBICIN] |  |  |  |  |  | IC50 (A2780 [12]; Homo sapiens, A2780): 56 nM; IC50 (A2780 [13]; Homo sapiens, A2780): 5 nM; IC50 (A2780 [14]; Homo sapiens, A2780): 357 nM; IC50 (A2780 [15]; Homo sapiens, A2780): 63 nM
CISPLATIN |  |  |  |  |  | IC50 (A2780 [12]; a2780): 9000 nM; IC50 (A2780 [13]; a2780): 450 nM; IC50 (A2780 [14]; a2780): 280 nM; IC50 (A2780 [15]; a2780): 1600 nM
